Measured values taken from patent US12013398B2, “Compositions and methods for treatment of invasive cancers” (The George Washington University, priority 2021, dated 2024).
“Also recorded” adds a separate entry of the source.

Tests used:
Assay type in all cases: cell-based
ATP1a1 = target: T1, ATP1a1 (Homo sapiens, UniProt P05023); assay: Immunofluorescence imaging of plasma membrane ATP1A1 localization in overconfluent DCIS.com cells; conditions: OC DCIS.com cells; 20 nM lithium bicarbonate or 100 nM ouabain, 24 hours; IF images
T1 construct: endogenous in cells; host or cells: MCF10DCIS.com (DCIS.com) cells, overconfluent
Source text: FIGS. 4A-4B depict images illustrating ion channel enrichment in DCIS plasma membranes. […] Transferrin receptor (TfR) distribution was insensitive to cell crowding. IF images. […] Scale bar=10 μm.
Crowding-induced cell volume changes typically occur under isotonic conditions and are accompanied by the efflux of intracellular osmolytes through ion channels. Methods herein assessed if ion channel activities were altered when cells are crowded.

DCIS.com cells [1] = assay: Cell cycle arrest in crowded DCIS.com cells; conditions: crowded DCIS cells treated with TSA vs vehicle
Source text: FIGS. 11A-11D depict images and graphs illustrating independent possibilities for crowding-mediated increased invasiveness. […] FIGS. 11C-11D show images of DCIS.com cell invasiveness after treatment with vehicle or TSA (FIG. 11C) and the percentage of invasive cells per treatment group (FIG. 11D).
(§1) Also assessed were two independent possibilities for crowding-mediated increased invasiveness: YAP-association and cell cycle arrest (high-density cells are subject to G1 arrest).

DCIS.com cells [2] = assay: 2D hydrogel matrix-based invasion assay; conditions: crowded DCIS.com cells treated with TSA vs vehicle
Source text: FIGS. 6A-6G depict images illustrating 2D hydrogel-based invasion assays. […] Percent (%) invading cells was calculating by dividing this value by the total number of spots. […] Scale bar=100 μm (FIGS. 6B-6E) and 10 μm (FIGS. 6F-6G).
To compare the invasive potential of live cells between different treatment groups, exemplary methods herein established a hydrogel matrix-based invasion assay (FIG. 6A). This assay was used to quantify the invasive cell fraction as a percentage of the total, based on fluorescence imaging results (FIGS. 6B-6E). Since cell stiffness is modulated by the stiffness of the surroundings [the values for normal breast versus DCIS cells are known to be ˜0.1 versus ˜10 kPa], the hydrogel matrix could be stiffness-controlled within the range specified above, as confirmed by nanoindenter measurements.
as §1

SMILES | PM ATP1a1 localization / PM abundance of ion channels (ATP1a1) | cell cycle arrest (DCIS.com cells [1]) | invasiveness of DCIS.com cells (percentage of invasive cells) (DCIS.com cells [2])
O=C([O-])O.[Li+] [lithium bicarbonate] | the perturbation was less obvious |  | 
C[C@@H]1O[C@@H](O[C@H]2C[C@@H](O)[C@]3(CO)[C@H]4[C@H](O)C[C@]5(C)[C@@H](C6=CC(=O)OC6)CC[C@]5(O)[C@@H]4CC[C@]3(O)C2)[C@H](O)[C@H](O)[C@H]1O [ouabain] | the PM abundance of ion channels was perturbed; also recorded: perturbed PM ATP1a1 localization |  | 
CC(/C=C/C(=O)NO)=C\[C@@H](C)C(=O)c1ccc(N(C)C)cc1 [Trichostatin A] |  | reversed the cell cycle arrest | did not decrease the invasiveness
